Laboratory results as given in PMC4113814, “Bioactive Cembrane Derivatives from the Indian Ocean Soft Coral, Sinularia kavarattiensis” (Marine Drugs, 2014).
Entries after “also recorded” stand apart in the source; their conditions may differ. Read-outs that look alike come from different tables or passages of the source.

Columns and labels:
cytokine release = experiment: Inhibition of cytokine release in primary microglial cells, whole cytokine panel (summary statements); assay type: cell-based, Wistar rats; details: Rattus norvegicus
Procedure: (§1) Primary microglial cell cultures were prepared from brains of newborn Wistar rats. Ethics approval for the experiments was granted by the EBIOTEC Review Board (Valter Lombardi, Iván Carrera and Lucía Fernández-Novoa; Project Identification Code: Sinularia Project October 2013; approved 30 October 2013). The neocortex of one-day-old postnatal rats was aseptically dissected out, and the meninges and blood vessels were carefully removed. Following cutting in a medium containing 20% horse serum, the suspension was filtered through a […] and transferred as a single cell suspension to culture dishes, using 5.0 mL of medium per dish. […] After 72 h of incubation, cells were counted, and 2.5 mL of the supernatants were collected from each well and frozen at −40 °C for cytokine analyses. […]
The supernatants obtained from cell cultures were analyzed for TNF-α, IL-1β, IL-4, IL-6, IL-8, IL-10 and IL-18 using commercially available ELISA kits following the manufacturers’ instructions. […] The cytokine concentration was calculated from a standard curve of the corresponding recombinant cytokine.
The cytotoxicity of the compounds was measured by the colorimetric methyl thiazol tetrazolium (MTT) assay and scored as a percentage of the absorbance reduction of treated cultures versus untreated control cultures. […] The solutions were shaken for 20 min, and the absorbance was measured at 570 nm. […]

primary microglial cells = experiment: Microglial morphology cell count (ramified vs amoeboid) in LPS-treated cultures; assay type: cell-based, Wistar rats; details: 2.5 μg/mL (7.2 μM) and 5.0 μg/mL (14.4 μM), 72 h
Procedure: as §1, with “dish. The cultures were incubated at 37 °C in an atmosphere containing 5% CO2. The culture medium consisted of Minimum Essential Medium Eagle, supplemented with L-glutamine, amino acids, vitamins, penicillin, gentamicin, sodium bicarbonate and 20% heat-inactivated horse serum. The medium was changed twice a week. After 1 week, the concentration of horse serum was reduced to 10%. After sixteen days in culture, cells were treated with 1 μg/mL of lipopolysaccharide (LPS).” for “dish.”

## C=C(C)[C@@H]1C/C=C2\C(=O)O[C@@H](C[C@]3(C)CC(=O)[C@@H](CC(=O)C1)O3)[C@@H]2O [Compound 2, sinuleptolide]
Cytokine release; converted from μg/mL, range over all cytokines
  IC50: 1.4 to 8.3 µM
Cytokine release; range over IL-1β, IL-6, IL-8, IL-18, TNF-α, IL-4, IL-10, read-out: IC50-values for the inhibition of cytokine release, range over cytokines
  IC50: 0.5 to 2.9 µg/mL
Primary microglial cells
  effect on ramified (RM) and amoeboid (AM) microglial cell density: significant RM and AM mean differences; also recorded: significantly reduce the number of activated amoeboid cells
